Here are results for nine compounds from US20230203060A1 (GENFLEET THERAPEUTICS (SHANGHAI) INC., priority 2020, published 2023).

One may read the pIC50 as the negative decadic logarithm of the IC50, by convention in mol/L.

pIC50: −log10 of the molar value.

Holding throughout (type): cell-based, human
The subject of test [1] is KRAS G12C mutant NCI-H358 cells. Kind of test: Cell proliferation inhibition experiment, 3D spheroid, CellTiter-Glo, NCI-H358. To be noted: Homo sapiens, NCI-H358, 120 h, NCI-H358 (KRAS G12C mutant) 3D spheroid, 5 days with compound, CellTiter-Glo; read-out: H358 IC50. The procedure, abridged:
(§1)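 Luminescence (CellTiter-Glo, 30 min incubation) was read after 5 days of compound treatment of overnight-formed spheroids of 800 H358 or 400 A549 cells in 2% FBS medium. Inhibition relative to DMSO and blank controls was fitted with a four-parameter model to yield IC50.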

Test [2] deals with A549 cells (KRAS G12S mutant). Nature of the test: Cell proliferation inhibition experiment, 3D spheroid, CellTiter-Glo, A549. To be noted: Homo sapiens, A549, 120 h, A549 (KRAS G12S mutant) 3D spheroid, 5 days with compound, CellTiter-Glo; read-out: A549 IC50. Put shortly:
as §1
For orientation: In ATP-based viability assays light output follows the ATP content of the culture.

The subject of test [3] is KRAS G12C mutant MIA PaCa-2 cells. Nature of the test: Cell proliferation inhibition experiment, 3D spheroid, CellTiter-Glo, MIA PaCa-2. To be noted: Homo sapiens, MIA PaCa-2, 120 h, 3D cell model in 384-well spheroid plate, 5 days, CellTiter-Glo; read-out: MIA-PaCa2 IC50. The procedure, abridged: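 200 MIA PaCa-2 cells/well grown overnight as 3D spheroids, then exposed to 3.16-fold compound dilutions (0.1% DMSO final) for 5 days. Viability read by CellTiter-Glo luminescence; inhibition calculated against DMSO and medium-only controls, and IC50 fitted by four-parameter model.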

Regarding `C=CC(=O)N1CCN2C(=O)c3c(N4C[C@@H](N5CC(F)C5)CC4(C)C)nc(-c4ccccc4F)c(Cl)c3OC[C@H]2C1` [Z480-1, (R)-8-acryloyl-4-chloro-1-((S)-4-(3-fluoroazetidin-1-yl)-2,2-dimethylpyrrolidin-1-yl)-3-(2-fluorophenyl)-6,6a,7,8,9,10-hexahydro-12H-pyrazino[2,1-c]pyrido[3,4-f][1,4]oxazepin-12-one], the pIC50 in test [1] was 8.47; in test [2] it was 5.40; in test [3] it was 8.00.
On the same counts, the results for `C=CC(=O)N1CCN2C(=O)c3c(N4CC[C@H](N(C)C)C4(C)C)nc(-c4ccccc4F)c(Cl)c3OC[C@H]2C1` [Z502-2, (6aR)-8-acryloyl-4-chloro-1-(3-(dimethylamino)-2,2-dimethylpyrrolidin-1-yl)-3-(2-fluorophenyl)-6,6a,7,8,9,10-hexahydro-12H-pyrazino[2,1-c]pyrido[3,4-f][1,4]oxazepin-12(6aH)-one] are 7.96, 5.21 and 7.62.
On the same counts, the results for `C=CC(=O)N1CCN2C(=O)c3c(N4CCC(OC)C4(C)C)nc(-c4c(N)cccc4F)c(Cl)c3OC[C@H]2C1` (stereo partly drawn) [Z506, (6aR)-8-acryloyl-3-(2-amino-6-fluorophenyl)-4-chloro-1-(3-methoxy-2,2-dimethylpyrrolidin-1-yl)-6,6a,7,8,9,10-hexahydro-12H-pyrazino[2,1-c]pyrido[3,4-f][1,4]oxazepin-12-one] are 9.10, 5.04 and 8.66.
On the same counts, the results for `C=CC(=O)N1CCN2C(=O)c3c(N4CC(N5CCC(F)(F)C5)CC4(C)C)nc(-c4ccccc4F)c(Cl)c3OC[C@H]2C1` (stereo partly drawn) [Z532, (6aR)-8-acryloyl-4-chloro-1-(3,3-difluoro-5′,5′-dimethyl-[1,3′-bipyrrolidin]-1′-yl)-3-(2-fluorophenyl)-6,6a,7,8,9,10-hexahydro-12H-pyrazino[2,1-c]pyrido[3,4-f][1,4]oxazepin-12-one] are 8.24, 5.50 and 7.61.
In the case of `C=CC(=O)N1CCN2C(=O)c3c(N4CCN(C)C[C@@H]4C)nc(-c4c(F)cccc4Cl)c(Cl)c3OC[C@H]2C1` [Z547, (6aR)-8-acryloyl-4-chloro-3-(2-chloro-6-fluorophenyl)-1-((S)-2,4-dimethylpiperazin-1-yl)-6,6a,7,8,9,10-hexahydro-12H-pyrazino[2,1-c]pyrido[3,4-f][1,4]oxazepin-12-one], the pIC50 in test [1] was 7.71; in test [2], 5.09; in test [3] it was 7.37.
The like results for `C=CC(=O)N1CCN2C(=O)c3c(N4CCN(C)[C@@H](C)[C@@H]4C)nc(-c4ccccc4F)c(Cl)c3OC[C@H]2C1` [Z653, (R)-8-acryloyl-4-chloro-3-(2-fluorophenyl)-1-((2S,3S)-2,3,4-trimethylpiperazin-1-yl)-6,6a,7,8,9,10-hexahydro-12H-pyrazino[2,1-c]pyrido[3,4-f][1,4]oxazepin-12 (6aH)-one] were, in that order, 7.56, 5.03 and 7.28.
On the same counts, the results for `C=CC(=O)N1CCN2C(=O)c3c(N4C[C@H](N5CC(F)C5)CC4(C)C)nc(-c4ccccc4F)c(F)c3OC[C@H]2C1` [Z654-2, (R)-8-acryloyl-4-fluoro-1-((R)-4-(3-fluoroazetidin-1-yl)-2,2-dimethylpyrrolidin-1-yl)-3-(2-fluorophenyl)-6,6a,7,8,9,10-hexahydro-12H-pyrazino[2,1-c]pyrido[3,4-f][1,4]oxazepin-12-one] are 7.82, 5.07 and 7.30.
Consider `C=CC(=O)N1CCN2C(=O)c3c(N4CC(N(C)CCO)CC4(C)C)nc(-c4ccccc4F)c(Cl)c3OC[C@H]2C1` (stereo partly drawn) [Z658, (6aR)-8-acryloyl-4-chloro-3-(2-fluorophenyl)-1-(4-((2-hydroxyethyl)(methyl)amino)-2,2-dimethylpyrrolidin-1-yl)-6,6a,7,8,9,10-hexahydro-12H-pyrazino[2,1-c]pyrido[3,4-f][1,4]oxazepin-12-one], for which the figures for the pIC50 in test [1], in test [2] and in test [3] were 8.59, 5.30 and 7.95, respectively.
On the same counts, the results for `C=CC(=O)N1CCN2C(=O)c3c(N4CC(NC)CC4(C)C)nc(-c4ccccc4F)c(Cl)c3OC[C@H]2C1` (stereo partly drawn) [Z661, (6aR)-8-acryloyl-4-chloro-1-(2,2-dimethyl-4-(methylamino)pyrrolidin-1-yl)-3-(2-fluorophenyl)-6,6a,7,8,9,10-hexahydro-12H-pyrazino[2,1-c]pyrido[3,4-f][1,4]oxazepin-12-one] are 8.40, 5.58 and 7.88.
